# Results as given in ChEMBL document CHEMBL1201862, “PubChem BioAssay data set” (2004).
# Active and inactive are the calls of the source.
# How the values were obtained:
# [1] = system: BJ; assay: cells; format: functional, cell-based; conditions: Homo sapiens
# [2] = system: BJ; assay: cytotoxicity toward BJ-TERT fibroblasts, dose response, cell-based, RAS-independent, luminescence (AID 1933); format: functional; conditions: Homo sapiens
# [3] = molecular target: T1, Zinc finger protein mex-5 (Caenorhabditis elegans, UniProt Q9XUB2); assay: MEX-5/TCR-2 RNA interaction inhibitors, dose response, biochemical, C. elegans, fluorescence polarization (AID 1960)
# T1 sequence (Q9XUB2 whole entry): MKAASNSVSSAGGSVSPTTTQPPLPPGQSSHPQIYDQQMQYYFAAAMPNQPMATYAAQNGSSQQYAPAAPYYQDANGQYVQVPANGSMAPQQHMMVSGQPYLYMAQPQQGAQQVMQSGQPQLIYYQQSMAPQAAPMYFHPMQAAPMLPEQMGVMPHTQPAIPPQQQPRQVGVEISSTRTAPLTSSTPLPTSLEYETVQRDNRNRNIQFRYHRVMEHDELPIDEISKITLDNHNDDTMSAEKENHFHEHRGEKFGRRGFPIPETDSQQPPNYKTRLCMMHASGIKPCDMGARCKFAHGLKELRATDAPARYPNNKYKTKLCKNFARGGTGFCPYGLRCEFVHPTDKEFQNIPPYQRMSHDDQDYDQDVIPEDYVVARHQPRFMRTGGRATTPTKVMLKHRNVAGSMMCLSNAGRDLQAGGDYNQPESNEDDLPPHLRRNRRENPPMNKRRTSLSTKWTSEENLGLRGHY
# [4] = molecular target: Keap1/Nrf2 (Homo sapiens, UniProt Q14145); assay: Keap1-Nrf2 protein-protein interaction inhibitors, dose response, biochemical, fluorescence polarization, cherry-picked samples (AID 588683)
# [5] = molecular target: UDP-galactopyranose mutase (Mycobacterium tuberculosis, UniProt P9WIQ1); assay: Inhibitors of Mycobacterium tuberculosis UDP-galactopyranose mutase (UGM) enzyme Measured in Biochemical System Using Plate Reader - 2105-02_Inhibitor_Dose_CherryPick_Activity. [Related pubchem assays (depositor defined):AID504439]
# [6] = growth suppression of beta-catenin-knockout colon cells, dose response, cell-based, HCT116, human colon tumor (AID 1045); format: functional;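 also: HCT116 colon tumor cells with beta catenin knocked out; cells exposed to compound for 60 hours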
# [7] = molecular target: 14-3-3 protein gamma (Homo sapiens, UniProt P61981); assay: modulators of 14-3-3 gamma client binding – dose response (AID 711); format: functional
# [8] = molecular target: T2, Tyrosine-protein phosphatase non-receptor type 22 (Homo sapiens, UniProt Q9Y2R2); assay: PubChem AID 2140
# T2 sequence (Q9Y2R2 whole entry): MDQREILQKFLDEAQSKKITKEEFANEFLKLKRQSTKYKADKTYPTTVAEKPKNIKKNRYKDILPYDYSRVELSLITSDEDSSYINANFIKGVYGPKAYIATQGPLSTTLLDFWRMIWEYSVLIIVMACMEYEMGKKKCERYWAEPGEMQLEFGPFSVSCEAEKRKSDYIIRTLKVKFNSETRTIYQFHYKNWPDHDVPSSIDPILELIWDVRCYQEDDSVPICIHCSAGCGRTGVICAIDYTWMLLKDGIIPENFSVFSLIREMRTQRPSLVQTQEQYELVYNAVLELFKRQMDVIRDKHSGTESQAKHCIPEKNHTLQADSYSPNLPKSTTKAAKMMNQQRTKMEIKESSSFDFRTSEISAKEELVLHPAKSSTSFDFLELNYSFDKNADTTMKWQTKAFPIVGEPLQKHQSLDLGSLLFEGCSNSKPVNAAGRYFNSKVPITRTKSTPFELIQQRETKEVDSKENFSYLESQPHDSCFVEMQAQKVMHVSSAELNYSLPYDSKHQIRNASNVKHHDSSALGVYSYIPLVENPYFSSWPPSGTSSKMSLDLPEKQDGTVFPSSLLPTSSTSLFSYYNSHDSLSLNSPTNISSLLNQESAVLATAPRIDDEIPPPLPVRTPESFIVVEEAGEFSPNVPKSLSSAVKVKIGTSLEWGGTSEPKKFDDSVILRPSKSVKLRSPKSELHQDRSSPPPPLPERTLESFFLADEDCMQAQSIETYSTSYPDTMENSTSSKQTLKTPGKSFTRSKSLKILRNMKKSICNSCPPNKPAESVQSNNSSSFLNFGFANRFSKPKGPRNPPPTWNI
# [9] = molecular target: Troponin, cardiac muscle (Homo sapiens, UniProt P19429+P45379+P63316); assay: inhibitors of cardiac thin filament calcium sensitivity, dose response, biochemical, fluorescence, cardiac regulated thin filaments, triplicate IC50 (AID 504742); format: protein-complex assay
# [10] = molecular target: Envelope glycoprotein gp160 (Human immunodeficiency virus 1, UniProt Q6QLK5); assay: inhibitors of HIV fusion peptide binding, primary screen, biochemical, uHTS, fluorescence dequenching (AID 1986)
# [11] = molecular target: T2, Tyrosine-protein phosphatase non-receptor type 22; assay: LYP1 Fluorescent Assay using OMFP substrate for In Vitro dose response studies. [Related pubchem assays (depositor defined):AID1779, AID1784, AID435024]
# [12] = molecular target: T3, Caspase-3 (Homo sapiens, UniProt P42574); assay: Dose-response confirmation of uHTS inhibitor hits of Sentrin-Specific Protease 8 in a Caspase-3 Fluorescence assay.; format: functional
# T3 sequence (P42574 whole entry): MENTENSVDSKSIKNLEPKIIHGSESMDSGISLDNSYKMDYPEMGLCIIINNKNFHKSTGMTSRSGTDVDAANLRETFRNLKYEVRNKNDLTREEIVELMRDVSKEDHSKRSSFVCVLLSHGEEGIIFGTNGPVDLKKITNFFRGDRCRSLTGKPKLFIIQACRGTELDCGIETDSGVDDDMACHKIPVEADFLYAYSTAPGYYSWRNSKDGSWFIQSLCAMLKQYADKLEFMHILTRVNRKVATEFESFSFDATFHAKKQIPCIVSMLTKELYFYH
# [13] = molecular target: Phospholipase A2 (Homo sapiens, UniProt P04054); format: functional;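 also: confirmatory dose-response counterscreen on phospholipase A2, testing hits that came from an ultra-high-throughput screen for ATG4B inhibitors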
# [14] = molecular target: T4, High affinity choline transporter 1 (Homo sapiens, UniProt Q9GZV3); assay: CHT inhibitors, dose response, cell-based, 5-point CRC, membrane potential dye (AID 504840); format: functional
# T4 sequence (Q9GZV3 whole entry): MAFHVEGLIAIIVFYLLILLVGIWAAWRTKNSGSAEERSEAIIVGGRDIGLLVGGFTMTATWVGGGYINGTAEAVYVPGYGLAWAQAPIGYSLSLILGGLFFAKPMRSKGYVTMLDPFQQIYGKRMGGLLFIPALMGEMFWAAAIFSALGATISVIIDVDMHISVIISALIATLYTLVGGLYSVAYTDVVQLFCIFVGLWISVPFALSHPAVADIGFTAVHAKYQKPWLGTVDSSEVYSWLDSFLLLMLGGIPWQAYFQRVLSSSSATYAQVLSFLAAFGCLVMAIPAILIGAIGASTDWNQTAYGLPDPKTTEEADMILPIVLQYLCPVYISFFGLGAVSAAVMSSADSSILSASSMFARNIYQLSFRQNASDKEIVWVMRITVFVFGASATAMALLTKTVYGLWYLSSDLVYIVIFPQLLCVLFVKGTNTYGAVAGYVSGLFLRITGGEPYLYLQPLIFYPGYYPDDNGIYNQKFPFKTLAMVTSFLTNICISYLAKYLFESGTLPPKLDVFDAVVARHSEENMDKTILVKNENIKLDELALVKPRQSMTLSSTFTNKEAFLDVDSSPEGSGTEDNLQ
# Envelope glycoprotein gp160, sequence (Q6QLK5 whole entry, the tested form may be a part): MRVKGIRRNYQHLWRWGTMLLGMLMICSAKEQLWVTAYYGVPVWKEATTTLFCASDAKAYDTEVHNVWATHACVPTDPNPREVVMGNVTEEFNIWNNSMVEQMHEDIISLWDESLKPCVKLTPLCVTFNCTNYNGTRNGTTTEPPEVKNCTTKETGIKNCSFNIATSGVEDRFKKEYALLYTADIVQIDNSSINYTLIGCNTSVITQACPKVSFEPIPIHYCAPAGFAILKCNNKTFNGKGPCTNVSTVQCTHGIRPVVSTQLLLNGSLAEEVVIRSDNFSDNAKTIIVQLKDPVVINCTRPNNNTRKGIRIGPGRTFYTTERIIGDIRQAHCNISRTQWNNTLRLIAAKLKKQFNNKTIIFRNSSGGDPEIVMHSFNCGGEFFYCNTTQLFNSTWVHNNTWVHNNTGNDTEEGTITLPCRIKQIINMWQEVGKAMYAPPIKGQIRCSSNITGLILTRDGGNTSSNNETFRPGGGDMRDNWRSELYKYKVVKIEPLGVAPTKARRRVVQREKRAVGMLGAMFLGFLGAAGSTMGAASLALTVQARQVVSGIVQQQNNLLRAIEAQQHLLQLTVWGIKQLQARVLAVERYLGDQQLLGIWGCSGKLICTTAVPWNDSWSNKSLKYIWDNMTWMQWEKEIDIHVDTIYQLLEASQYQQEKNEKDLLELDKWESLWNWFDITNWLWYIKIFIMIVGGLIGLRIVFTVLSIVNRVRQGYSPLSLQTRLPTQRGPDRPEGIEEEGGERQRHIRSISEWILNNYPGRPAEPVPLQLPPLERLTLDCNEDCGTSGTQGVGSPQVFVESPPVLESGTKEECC
# 14-3-3 protein gamma, sequence (P61981 whole entry): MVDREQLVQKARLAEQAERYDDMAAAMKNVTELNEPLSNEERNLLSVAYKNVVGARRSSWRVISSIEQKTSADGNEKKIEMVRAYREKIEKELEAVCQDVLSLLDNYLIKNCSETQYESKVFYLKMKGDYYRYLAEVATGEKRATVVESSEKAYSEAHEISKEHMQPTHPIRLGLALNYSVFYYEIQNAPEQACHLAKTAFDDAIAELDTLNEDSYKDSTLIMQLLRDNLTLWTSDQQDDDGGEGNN
# Phospholipase A2, sequence (P04054 whole entry): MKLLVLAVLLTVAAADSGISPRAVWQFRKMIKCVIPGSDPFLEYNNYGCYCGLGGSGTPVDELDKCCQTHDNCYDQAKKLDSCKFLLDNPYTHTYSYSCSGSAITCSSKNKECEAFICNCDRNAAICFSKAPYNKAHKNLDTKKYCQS
# UDP-galactopyranose mutase, sequence (P9WIQ1 whole entry): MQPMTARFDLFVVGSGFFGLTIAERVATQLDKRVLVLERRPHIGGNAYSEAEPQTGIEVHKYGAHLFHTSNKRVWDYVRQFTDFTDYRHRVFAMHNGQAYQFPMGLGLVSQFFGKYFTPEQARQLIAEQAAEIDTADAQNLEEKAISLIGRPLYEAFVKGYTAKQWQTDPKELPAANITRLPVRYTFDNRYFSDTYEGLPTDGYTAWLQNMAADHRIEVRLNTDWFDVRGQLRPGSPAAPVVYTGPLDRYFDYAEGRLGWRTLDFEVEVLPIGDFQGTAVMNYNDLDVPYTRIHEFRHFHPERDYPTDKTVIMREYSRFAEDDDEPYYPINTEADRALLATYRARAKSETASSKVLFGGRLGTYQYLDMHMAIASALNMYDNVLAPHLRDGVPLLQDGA
# Keap1/Nrf2, sequence (Q16236 whole entry): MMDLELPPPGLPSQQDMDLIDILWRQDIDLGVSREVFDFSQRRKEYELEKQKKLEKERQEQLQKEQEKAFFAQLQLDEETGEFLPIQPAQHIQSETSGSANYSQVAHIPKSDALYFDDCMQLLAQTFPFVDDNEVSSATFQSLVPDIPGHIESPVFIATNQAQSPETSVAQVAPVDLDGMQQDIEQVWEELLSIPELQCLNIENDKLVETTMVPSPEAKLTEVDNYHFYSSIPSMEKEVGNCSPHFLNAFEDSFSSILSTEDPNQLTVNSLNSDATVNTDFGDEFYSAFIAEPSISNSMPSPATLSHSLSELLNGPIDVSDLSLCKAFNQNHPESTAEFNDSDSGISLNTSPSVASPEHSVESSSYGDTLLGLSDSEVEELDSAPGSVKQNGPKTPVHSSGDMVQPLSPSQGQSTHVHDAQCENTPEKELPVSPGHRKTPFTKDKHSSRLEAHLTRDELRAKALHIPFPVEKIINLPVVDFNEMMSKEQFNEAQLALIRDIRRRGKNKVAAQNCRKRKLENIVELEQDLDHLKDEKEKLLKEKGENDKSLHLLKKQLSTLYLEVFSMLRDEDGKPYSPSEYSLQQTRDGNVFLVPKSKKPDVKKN
# Keap1/Nrf2, sequence (Q14145 whole entry): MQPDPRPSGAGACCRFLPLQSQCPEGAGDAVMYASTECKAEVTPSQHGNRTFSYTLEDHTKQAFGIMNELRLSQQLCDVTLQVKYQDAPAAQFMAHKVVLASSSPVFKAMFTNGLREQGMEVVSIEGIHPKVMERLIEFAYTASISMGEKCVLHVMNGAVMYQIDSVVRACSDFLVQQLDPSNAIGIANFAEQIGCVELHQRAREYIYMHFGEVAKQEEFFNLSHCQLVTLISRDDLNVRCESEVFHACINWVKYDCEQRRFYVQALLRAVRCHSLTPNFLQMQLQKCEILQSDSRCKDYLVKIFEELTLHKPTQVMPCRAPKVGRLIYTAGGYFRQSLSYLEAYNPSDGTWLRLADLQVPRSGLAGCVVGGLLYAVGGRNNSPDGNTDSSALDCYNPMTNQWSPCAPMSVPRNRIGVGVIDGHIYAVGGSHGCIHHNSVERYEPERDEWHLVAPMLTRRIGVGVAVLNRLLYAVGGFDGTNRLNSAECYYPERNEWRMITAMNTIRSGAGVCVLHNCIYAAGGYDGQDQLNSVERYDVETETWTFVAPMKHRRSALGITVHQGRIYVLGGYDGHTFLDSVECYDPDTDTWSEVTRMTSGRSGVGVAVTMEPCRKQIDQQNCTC
structure (smiles),measurement,setting,value
CCN1/C(=C/c2ccc3cc(C)ccc3[n+]2CC)Sc2cc(C)c(C)cc21,EC50,[1],2.34 µM (active)
same,EC50,[2],0.337 µM (inconclusive)
Nc1ccc2nc3c(O)nc(S)nc3nc2c1,EC50,[3],1.67 µM (inconclusive)
same,AC50,[4],3.55 µM (active)
same,AC50,[5],3.57 µM (active)
Cc1oc2c(c1C(=O)c1ccccc1)C(=O)C(=O)c1ccccc1-2,EC50,[6],2.26 µM (active)
O=C1CCCC2=C1C1(O)C(=O)c3ccccc3C1(O)O2 (centres undefined),IC50,[7],> 50 µM (not active)
O=C(O)COc1ccc(/C=N/NC(=O)c2ccc(-c3csc(Nc4ccc(Cl)cc4)n3)cc2)cc1,IC50,[8],6.07 µM (active)
same,IC50,[9],> 71.5 µM (inactive)
same,IC50,[10],15 µM (active)
same,IC50,[11],> 99 µM (inactive)
COc1cc(NCCCNC(C)C)c2nccc(C)c2c1,IC50,[12],13.8 µM (active)
CC(/C=C1\SC(=S)N(NS(=O)(=O)c2ccccc2)C1=O)=C\c1ccccc1,IC50,[13],8.23 µM (active)
same,IC50,[14],9.12 µM (active)
